Measured values taken from paper PMC5321445, “Inhibition of Arabidopsis chloroplast β-amylase BAM3 by maltotriose suggests a mechanism for the control of transitory leaf starch mobilisation” (PLoS ONE, 2017).

What was measured:
Type in all cases: biochemical
BAM1 = target: T1, BAM1 (Arabidopsis thaliana, UniProt Q9LIR6); assay: Betamyl colorimetric assay, p-nitrophenol release; details: 2.5 mM substrate, 0.1 M maleic acid pH 6.2, 40°C; enzyme pre-treated with 20 mM DTT
T1 sequence (Q9LIR6 42-575): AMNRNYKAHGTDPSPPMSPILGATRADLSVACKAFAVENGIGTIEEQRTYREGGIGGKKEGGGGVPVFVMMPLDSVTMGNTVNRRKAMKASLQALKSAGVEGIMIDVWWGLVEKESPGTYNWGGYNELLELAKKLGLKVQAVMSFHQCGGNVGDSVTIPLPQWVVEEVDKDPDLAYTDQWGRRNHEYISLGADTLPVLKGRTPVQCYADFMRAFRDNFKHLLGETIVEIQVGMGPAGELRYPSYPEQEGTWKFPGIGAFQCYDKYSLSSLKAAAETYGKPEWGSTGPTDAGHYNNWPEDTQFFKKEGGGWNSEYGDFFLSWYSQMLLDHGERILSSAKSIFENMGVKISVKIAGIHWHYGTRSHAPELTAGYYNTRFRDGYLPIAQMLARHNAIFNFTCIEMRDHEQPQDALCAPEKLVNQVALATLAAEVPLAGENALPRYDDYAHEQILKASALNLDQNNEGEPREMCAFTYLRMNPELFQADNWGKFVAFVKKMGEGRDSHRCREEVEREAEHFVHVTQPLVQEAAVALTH

barley BAM = target: T2, barley BAM (Hordeum vulgare, UniProt P16098); assay: Betamyl colorimetric assay, p-nitrophenol release; details: 2.5 mM substrate, 0.1 M maleic acid pH 6.2, 40°C; enzyme pre-treated with 20 mM DTT
T2 construct: gene BMY1; commercial barley seed beta-amylase (Sigma A7130), native preparation, lyophilised powder

BAM3 = target: T3, BAM3 (Arabidopsis thaliana, UniProt O23553); assay: GC-MS maltose assay, Lineweaver-Burk and non-linear regression; details: substrate maltohexaose 2.5-25 mM; mixed inhibition; 50 mM sodium acetate, 5 mM DTT, 5 mM EDTA, pH 6.0, 25°C
T3 sequence (O23553 50-548): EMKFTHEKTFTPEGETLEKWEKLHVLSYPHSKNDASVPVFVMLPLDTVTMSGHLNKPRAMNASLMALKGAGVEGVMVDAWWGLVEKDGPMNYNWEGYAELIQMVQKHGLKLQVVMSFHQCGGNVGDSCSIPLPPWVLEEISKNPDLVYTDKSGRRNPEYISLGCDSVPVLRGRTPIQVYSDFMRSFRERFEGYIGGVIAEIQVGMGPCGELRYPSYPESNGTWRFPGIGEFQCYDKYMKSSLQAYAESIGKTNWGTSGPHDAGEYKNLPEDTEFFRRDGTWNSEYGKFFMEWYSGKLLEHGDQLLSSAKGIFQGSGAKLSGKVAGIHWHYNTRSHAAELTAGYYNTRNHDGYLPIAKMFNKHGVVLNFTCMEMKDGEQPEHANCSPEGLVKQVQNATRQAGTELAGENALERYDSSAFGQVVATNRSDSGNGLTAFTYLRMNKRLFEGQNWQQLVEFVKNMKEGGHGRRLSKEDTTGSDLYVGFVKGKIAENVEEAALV

T2 sequence (P16098 whole entry): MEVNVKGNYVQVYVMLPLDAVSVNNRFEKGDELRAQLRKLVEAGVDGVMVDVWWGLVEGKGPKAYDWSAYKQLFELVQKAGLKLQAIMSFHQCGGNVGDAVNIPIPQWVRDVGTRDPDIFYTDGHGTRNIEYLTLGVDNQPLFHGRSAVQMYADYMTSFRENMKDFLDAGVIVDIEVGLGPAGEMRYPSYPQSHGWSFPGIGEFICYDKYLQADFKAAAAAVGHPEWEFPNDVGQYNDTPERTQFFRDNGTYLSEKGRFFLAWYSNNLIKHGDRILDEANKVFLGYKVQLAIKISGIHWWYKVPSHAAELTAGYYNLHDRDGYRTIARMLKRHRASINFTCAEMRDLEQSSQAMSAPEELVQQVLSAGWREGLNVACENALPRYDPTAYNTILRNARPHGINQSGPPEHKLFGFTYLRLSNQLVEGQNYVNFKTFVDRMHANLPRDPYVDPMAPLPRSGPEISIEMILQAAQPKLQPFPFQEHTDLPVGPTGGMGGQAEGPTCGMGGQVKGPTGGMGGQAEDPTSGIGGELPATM

Ki (BAM3) [mM]	SMILES	Betamyl colorimetric assay, p-nitrophenol release (BAM1)	Betamyl colorimetric assay, p-nitrophenol release (barley BAM)
	O=[N+]([O-])c1ccc(O[C@H]2O[C@H](CO)[C@@H](O[C@H]3O[C@H](CO)[C@@H](O[C@H]4O[C@H](CO)[C@@H](O[C@H]5O[C@H](CO)[C@@H](O[C@H]6O[C@H](CO)[C@@H](O)[C@H](O)[C@H]6O)[C@H](O)[C@H]5O)[C@H](O)[C@H]4O)[C@H](O)[C@H]3O)[C@H](O)[C@H]2O)cc1 [PNPG5, p-nitrophenyl maltopentaoside]	we assayed recombinant BAM1 and commercially-purchased barley seed β-amylase, under the same conditions	we assayed recombinant BAM1 and commercially-purchased barley seed β-amylase, under the same conditions
7.5	OC[C@H]1O[C@H](O[C@H]2[C@H](O)[C@@H](O)[C@@H](O[C@H]3[C@H](O)[C@@H](O)C(O)O[C@@H]3CO)O[C@@H]2CO)[C@H](O)[C@@H](O)[C@@H]1O (stereo partly drawn) [G3, maltotriose]		
